In one test the target is T1, Neutrophil elastase (Homo sapiens, UniProt P08246).
T1 sequence (P08246 whole entry): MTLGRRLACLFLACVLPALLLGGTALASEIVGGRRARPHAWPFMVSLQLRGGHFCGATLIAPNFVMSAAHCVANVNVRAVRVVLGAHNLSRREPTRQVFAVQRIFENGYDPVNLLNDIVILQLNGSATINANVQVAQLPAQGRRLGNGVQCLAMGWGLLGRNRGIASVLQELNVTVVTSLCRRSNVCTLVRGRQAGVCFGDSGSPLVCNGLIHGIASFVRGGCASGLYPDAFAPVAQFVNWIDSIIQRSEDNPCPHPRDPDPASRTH
Put plainly: Binding affinity for human leukocyte elastase (HLE); Kreact/Kinact.

The target of test [1] is T2, Neutrophil elastase (Homo sapiens) (UniProt P08246).
T2 sequence (whole entry): T1 sequence (P08246 whole entry)
Description: Inhibition of human leukocyte elastase (HLE)

As usually defined, the Ki is a measure of affinity in units of concentration, obtained from inhibition or displacement. Take `CC(C)c1cccc2c1C(=O)N(COc1cccc(C(=O)NCCN3CCOCC3)c1)S2(=O)=O`: at Neutrophil elastase, the Ki was > 100 nM.

Turning to `CC(C)c1cccc2c1C(=O)N(COc1c(Cl)cccc1Cl)S2(=O)=O`, the Ki on Neutrophil elastase is > 100 nM.

On to `CO[C@H]1C(=O)N2C(C(=O)N3CCC[C@H]3C(=O)O)=C(COC(C)=O)CS(=O)(=O)[C@H]12`, for which the Ki at Neutrophil elastase came out at 2.2 nM. Also, the K inact in test [1] stood at 3700 M⁻¹ s⁻¹.

Take `CC(C)c1cccc2c1C(=O)N(COc1cccc(C(=O)OCCN3CCOCC3)c1)S2(=O)=O`: the Ki at Neutrophil elastase was > 1000 nM.

The values above are taken from ChEMBL document CHEMBL1128126, “Inhibitors of human leukocyte elastase. 2.1 synthesis and sar of benzisothiazolinylmethyl aryl ethers” (Bioorg Med Chem Lett, 1995).
